Assay [1] addresses T1, ΔTRα2 (T4 Inactivating Protein; TIP) (Rattus norvegicus, UniProt P63059).
T1 construct: ΔTRα2 is encoded by exons 8-10 resulting in an approximately 25 kd protein
Put plainly: rT3 binding displacement in nuclei-free extracts of cultured rat astrocytes. To be noted: ΔTRα2-containing nuclei-free astrocyte extracts; rT3 as ligand; read-out: Kd, displacement of rT3. The procedure: The properties of thyroid hormone binding to non-nuclear components of the cell were examined using ΔTRα2 (T4 Inactivating Protein; TIP)-containing, nuclei-free extracts of cultured rat astrocytes. […] Both rT3 and T4 specifically displace rT3 with Kd's of approximately 0.3-0.5 nM.

In assay [2] the target is ΔTRα1 (Rattus norvegicus, UniProt P63059). Put plainly: [125I]rT3 displacement from cell-free translated ΔTRα1. It is filed as binding. To be noted: cell-free translated polypeptide. The text has this: (§1) ΔTRα1 and ΔTRα2 polypeptides were synthesized by cell-free translation of appropriate segments of the rat ΔTRα1 and ΔTRα2 cDNA using the coupled transcription-translation kit from Promega® (TNT) according to the manufacturer's instructions.

For assay [3], the target named is T2, ΔTRα2 (Rattus norvegicus, UniProt P63059).
T2 sequence (P63059 256-492): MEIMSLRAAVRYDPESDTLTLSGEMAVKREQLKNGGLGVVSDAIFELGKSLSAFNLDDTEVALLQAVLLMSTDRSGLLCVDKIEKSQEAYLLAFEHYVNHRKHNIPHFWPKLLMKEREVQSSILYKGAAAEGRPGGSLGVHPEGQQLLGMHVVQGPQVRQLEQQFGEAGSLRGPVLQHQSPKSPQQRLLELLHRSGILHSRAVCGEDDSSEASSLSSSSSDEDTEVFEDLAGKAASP
Put plainly: [125I]rT3 displacement from cell-free translated ΔTRα2. It is filed as binding. To be noted: cell-free translated polypeptide.
Description: as §1

Assay [4] addresses binding of p29^GFP vesicles to F-actin. Briefly: modified in vitro actin binding assay with p29^GFP-labeled vesicles. The assay is classed as biochemical, rat. The note with it: 0-100 nM, 20 minutes at 37° C.; read-out: EC50, increase in quantity of p29^GFP bound to F-actin. The procedure:
To define the specific region(s) of the myosin V tail that interact with the p29 vesicle, a series of deletion mutations were created based on the dominant negative effect of exogenous myosin V tail on p29 vesicle binding. Competition analysis of the myosin V deletion mutations on T4-dependent binding of p29 vesicles to F-actin was performed using a modified in vitro assay in which a GFP-tagged p29 fusion protein (p29^GFP) replaced the radioaffinity labeled native p29 (Farwell et al., 1990, J. Biol. Chem. 265:18546-18553; Farwell et al., 1993, J. Biol. Chem. 268:5055-5062). This allowed direct evaluation of the binding of fluorescent vesicles to F-actin without affinity radiolabeling of the p29 and subsequent SDS-PAGE analysis.
Specific fluorescence at 510 nm (excitation, 488 nm) was then determined in the resuspended Triton-insoluble pellets.
To determine if the myosin V tail could be captured by the p29^GFP vesicle, an exogenous myosin V^tail was introduced into astrocytes constitutively expressing p29^GFP by infection with Ad5-ΔMyo V^tail virus particles and examined the effects of T4 on the binding of the myosin V^tail to immunopurified p29^GFP vesicles. Astrocytes expressing p29^GFP were grown in serum-free media and treated for 16 hours with 1 mM bt2cAMP and 100 nM hydrocortisone. A separate pool of astrocytes was treated in serum-free media supplemented with 10 μM retinoic acid. Cells were collected by scraping, and lysed by two freeze-thaw cycles. […] Triton-soluble (vesicle) and Triton-insoluble (F-actin) fractions were separated by microflige centrifugation. Triton pellets were resuspended in 300 μl of PBS and fluorescence at 510 nm (excitation 488 nm) determined and relative fluorescence was reported as arbitrary units. Cells were treated with 10 nM T4 for twenty minutes and a Triton-soluble supernatant was prepared. Vesicles containing the p29^GFP were immunoprecipitated by anti-GFP IgG (2 μg/ml) and protein in the immunoprecipitates were resolved by SDS-PAGE. Immunoblot analysis of vesicle-associated myosin V was performed using the anti-myosin V antibody directed against the C-terminus.
The quantity of each mutant protein synthesized was determined by [^35 S]-methionine incorporation. Astrocytes expressing p29^GFP were grown in serum-free media and treated for 16 hours with […] bt2cAMP and 100 nM hydrocortisone. p29^GFP V-lysate and F-lysate were prepared as described herein. 100 μg aliquots of p29^GFP V-lysate and F-lysate were pre-incubated, in triplicate, for 20 minutes at 37° C. in the presence of individual Δ myosin V mutant proteins (˜2-3 pmol polypeptide/50 μl mixture) were added to the actin-binding assay and pre-incubated for 20 minutes at 37° C. T4 (10 nM) was then added, the mixtures incubated for 20 minutes at 37° C., and F-actin bound, fluorescent p29^GFP vesicles were then isolated in the Triton-insoluble pellet.
V lysates prepared from astrocytes over-expressing p29^GFP were pre-incubated for 30 minutes at room temperature with antisera raised against ΔTRα2, ΔTRα1, the C-terminus of MyoV (encoded by MyoV^tail, FIG. 5), the coiled-coil region of MyoV (encoded by MyoV^coil-coil, FIG. 5) and GFP (green fluorescent protein). T4 (10 nM) and actin fiber-containing F-lysate was then added, the mixtures incubated at 37° C. for 20 minutes, and the Triton-insoluble fraction isolated by centrifugation.

Assay [5] deals with D2 activity. The note with it: in astrocytes; cited from earlier work.

T1 sequence (P63059 whole entry, stated change not applied): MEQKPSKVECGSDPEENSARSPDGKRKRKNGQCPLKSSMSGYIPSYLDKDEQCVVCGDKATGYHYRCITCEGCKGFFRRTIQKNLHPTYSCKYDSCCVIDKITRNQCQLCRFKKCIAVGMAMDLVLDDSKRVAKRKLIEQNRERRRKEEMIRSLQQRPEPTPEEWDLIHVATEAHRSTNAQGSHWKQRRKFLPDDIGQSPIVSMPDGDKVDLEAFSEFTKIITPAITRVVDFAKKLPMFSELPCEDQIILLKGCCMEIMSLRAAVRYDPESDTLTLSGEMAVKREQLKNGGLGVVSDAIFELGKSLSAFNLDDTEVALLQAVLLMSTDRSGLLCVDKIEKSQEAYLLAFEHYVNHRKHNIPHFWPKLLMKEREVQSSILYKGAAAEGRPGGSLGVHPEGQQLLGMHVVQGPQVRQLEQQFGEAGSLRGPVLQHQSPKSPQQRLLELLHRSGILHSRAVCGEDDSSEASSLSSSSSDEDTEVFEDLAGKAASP

On to `N[C@@H](Cc1cc(I)c(Oc2cc(I)c(O)c(I)c2)c(I)c1)C(=O)O` [T4, thyroxine], for which the Kd (in general, the equilibrium constant for the complex coming apart) in assay [1] fell in the range of 0.3 to 0.5 nM; in assay [2], 0.3 to 1 nM; in assay [3], 0.3 to 1 nM. Besides, the EC50 (in general, the concentration that produces a half-maximal response) in assay [4] is approximately 0.5 nM. Also, in assay [5], the “quantity of D2 activity” value is recorded as “decreases the quantity of D2 activity”.

The values are drawn from US7374890B2, “Methods for identifying compounds that modulate ΔTRα2 activity” (University of Massachusetts, priority 2000, dated 2008).
